Experimental data: PubChem BioAssay (NCI)
Where “and” joins values, the source holds several entries; their conditions need not be identical. Equal values may be shown once.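 All cell lines were grown in 96-well plates and treated with compound for 48 hours. Here, GI50 denotes the concentration required for 50% inhibition of growth. The concentration for full growth arrest is given as TGI.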

Experiments:
Test in all cases: growth of human tumour cells (NCI), 48 h
RXF 393 renal = system: RXF 393 renal
DMS 273 small cell lung = system: DMS 273 small cell lung
HOP-92 NSCLC = system: HOP-92 NSCLC
SF-539 CNS = system: SF-539 CNS
HCT-15 colon = system: HCT-15 colon
SNB-19 CNS = system: SNB-19 CNS
TK-10 renal = system: TK-10 renal
K-562 leukemia = system: K-562 leukemia
M19-MEL melanoma = system: M19-MEL melanoma
NCI-H460 lung = system: NCI-H460 lung

Row | SMILES | GI50 (RXF 393 renal) | TGI (RXF 393 renal) | TGI (DMS 273 small cell lung) | GI50 (HOP-92 NSCLC) | TGI (HOP-92 NSCLC) | GI50 (SF-539 CNS) | TGI (SF-539 CNS) | GI50 (HCT-15 colon) | TGI (HCT-15 colon) | GI50 (SNB-19 CNS) | TGI (SNB-19 CNS) | GI50 (TK-10 renal) | TGI (TK-10 renal) | GI50 (K-562 leukemia) | TGI (K-562 leukemia) | GI50 (M19-MEL melanoma) | TGI (M19-MEL melanoma) | GI50 (NCI-H460 lung) | TGI (NCI-H460 lung)
1 | COc1ccc2c(c1)-c1nn(CCCN(C)C)c3ccc([N+](=O)[O-])c(c13)N2 | 0.274 µM and 0.135 µM | 1.33 µM and 2.05 µM | 1.86 µM and 4.99 µM | 0.192 µM and 0.764 µM | 1.77 µM and 4.97 µM | 0.163 µM and 0.602 µM | 3.17 µM and 7.49 µM | 0.142 µM and 0.541 µM | 2.38 µM and 13.5 µM | 0.192 µM and 0.59 µM | 6.33 µM and 11.3 µM | 0.345 µM and 0.809 µM | 4.69 µM and 7.86 µM | 0.145 µM and 0.338 µM | 5.57 µM and 12.1 µM | 0.255 µM and 0.545 µM | 3.39 µM and 11.8 µM | 0.103 µM and 0.27 µM | 1.21 µM and 3.06 µM
2 | CC1OC(CC(=O)O)CC2=C1C(=O)c1c(O)cccc1C2=O (centres undefined) |  | 0.103 µM | 0.594 µM |  | 0.331 µM |  | 2.43 µM |  | 0.183 µM |  | 2.98 µM |  | 1.82 µM |  | 0.36 µM |  | 0.213 µM |  | 3.58 µM
3 | NC(=S)N1N=C2c3ccccc3CC[C@H]2[C@@H]1c1ccc(Cl)cc1 |  | 84.3 µM | 73.3 µM |  | 58.2 µM |  | > 100 µM |  | > 100 µM |  | > 100 µM |  | > 100 µM |  | 82.5 µM |  | > 100 µM |  | > 100 µM
4 | O=C(CCCN1CCC(C(O)c2ccc(F)cc2)CC1)c1ccc(F)cc1 (centres undefined) |  | 98.3 µM | 118 µM |  | 60.4 µM |  | 113 µM |  | 123 µM |  | 114 µM |  | 86.8 µM |  | 154 µM |  | 115 µM |  | 115 µM
5 | O=c1c2cc3c(cc2c2cccc4c2n1CCC4)OCO3 |  | 92.2 µM | > 100 µM |  | > 100 µM |  | > 100 µM |  | > 100 µM |  | > 100 µM |  | > 100 µM |  | > 100 µM |  | > 100 µM |  | > 100 µM
6 | CC(=O)OC1=CC2(OC(C)=O)CC(C)(C)C1C1C(=O)C=CC(=O)C12 (centres undefined) |  | > 100 µM | > 100 µM |  | > 100 µM |  | > 71 µM |  | > 100 µM |  | > 100 µM |  | > 100 µM |  | > 100 µM |  | > 100 µM |  | > 100 µM
7 | Cc1ccc(NC(=O)CCc2n[nH]c(=S)o2)cc1 |  | > 100 µM | > 100 µM |  | > 100 µM |  | > 100 µM |  | > 100 µM |  | > 100 µM |  | > 100 µM |  | > 100 µM |  | > 100 µM |  | > 100 µM
8 | CC1=Nc2c([nH]c(=S)[nH]c2=O)NC(c2c(Cl)cccc2Cl)C1 (centres undefined) |  | 9.91 µM | 4.4 µM |  | 17.2 µM |  | 4.2 µM |  | 8.67 µM |  | 6.37 µM |  | 18 µM |  | 2.21 µM |  | 3.17 µM |  | 5.64 µM
9 | c1ccc(OCc2nnc3n2N=C(c2ccccc2)CS3)cc1 |  | > 100 µM | > 100 µM |  | > 100 µM |  | > 100 µM |  | > 100 µM |  | > 100 µM |  | > 100 µM |  | > 100 µM |  | > 100 µM |  | > 100 µM
10 | O=c1[nH]cnc2c(COCCO)c[nH]c12 |  | > 100 µM | > 100 µM |  | > 100 µM |  | > 100 µM |  | > 100 µM |  | > 100 µM |  | > 100 µM |  | > 100 µM |  | > 100 µM |  | > 100 µM
11 | COc1cccc(N2C(=O)C3C4C=C5c6ccccc6N(c6ccccc6)C5(C3C2=O)[C@H]2C(=O)N(c3cccc(OC)c3)C(=O)[C@@H]42)c1 (some centres undefined) |  | > 100 µM | > 100 µM |  | > 100 µM |  | > 100 µM |  | > 100 µM |  | > 100 µM |  | > 100 µM |  | > 100 µM |  | > 100 µM |  | > 100 µM
12 | Cc1ccc(S(=O)(=O)N/N=C/C(C)C)cc1 |  | > 100 µM | > 100 µM |  | > 100 µM |  | > 100 µM |  | > 100 µM |  | > 100 µM |  | > 100 µM |  | > 100 µM |  | > 100 µM |  | > 100 µM
13 | N#Cc1cccc(C=NC23CC4CC(CC(C4)C2)C3)c1 |  | > 100 µM | > 100 µM |  | > 100 µM |  | > 100 µM |  | > 100 µM |  | > 100 µM |  | > 100 µM |  | > 100 µM |  | > 100 µM |  | > 100 µM
14 | COc1ccc(C(=O)C#Cc2c[nH]c(=O)[nH]c2=O)cc1 |  | 18.3 µM | 30.4 µM |  | 41.8 µM |  | 19.3 µM |  | 20.9 µM |  | 44.7 µM |  | 23.3 µM |  | 37.3 µM |  | 21.9 µM |  | 73.9 µM
15 | C=C(C(=C)P(=S)(C(C)C)C(C)C)P(=S)(C(C)C)C(C)C |  | > 100 µM | > 100 µM |  | > 100 µM |  | > 100 µM |  | > 100 µM |  | > 100 µM |  | > 100 µM |  | > 100 µM |  | > 100 µM |  | > 100 µM
